Key:
[1] = tested on: SH-SY5Y cells; experiment: Lysosomal acidification assay using LysoSensor-dextran; format: cell-based, human; conditions: Aβ 1 µM, within 24 h of incubation; ΔpH = pHfinal (t = 24 h) − pHinitial (control, t = 0 h); n = 12, N = 4
Experimental: Cells were cultured on coverslips and treated with Aβ variants (primary cortical neurons, DIV14–500 nM, 4 h; SH-SY5Y cells, D3–1 μM, 24 h) in presence of 50 µM LysoSensor-dextran probe (ThermoFisher Scientific, L7545) in cell culture media for the indicated time points. Cells were washed and stained as described before. For fluorescence analyses, cells were cultured and treated in a 96-well plate for the indicated time points, and washed thrice with PBS to remove the excess probe. Fluorescence intensity analysis of blue and green channel was done using a multiplate reader (Tecan Life Sciences, Switzerland). […] was computed from the fluorescence values measured at λEx 340 nm and λEm 450 nm (blue channel) and λEm 535 nm (green channel), respectively. Values were normalized to absorbance at 340 nm and protein content per well, and represented as change of LysoSensor acidification with respect to control cells (Figure 7B and S7C-D). pH values were computed by preparing a standard curve, wherein cells treated with 1 µM nigericin (Sigma Aldrich, N7143) and 1 µM monensin (Sigma Aldrich, M5273) were incubated with media of pH 4.5, 7.5 and 9.2. As independent controls, 100 nM bafilomycin A1 (Sigma Aldrich, 553210), 1 mM NH4Cl- and 10 µM rapamycin (Cayman Chemicals, 19438)-treated cells were also used as independent controls to validate the measurements. Change in LysoSensor pH (ΔpH) for Aβ treated cells was quantified using the formula ΔpH = pHfinal (control/Aβ, t = 24 h) − pHinitial (control, t = 0 h). Box plots (Figure 7C and S7E) depict the overall distribution of data, and each data point represents average values from an independent experiment; n = 12, N = 4.

[2] = tested on: primary cortical neurons; experiment: SDS-PAGE and immunoblotting of marker proteins in membrane and cytosolic fractions; format: cell-based, mouse; conditions: Aβ 500 nM, 4 h, normalized to Actin/GAPDH, fold change wrt control cells, mean ± S.E.M., n = 6, N = 3; for CTSD mature* level / CTSD pro* level / EEA1* level / RAB5* level / RAB7* level / RAB11* level / SQSTM1/p62* level / UBQ* level: cytosolic fraction; for ATG3 level / ATG5 level / ATG12–ATG5 level / ATG14 level / LAMP2 level / LC3-I level / LC3-II level / ULK1/Atg1 level: membrane fraction
Experimental: [Worded in the source for another cell line; used here, by the source, with some conditions changed.] (§1) SH-SY5Y cells seeded on D1, were treated with Aβ variants (1 μM) on D3 in DMEM/F-12 media without serum and antibiotics. Control treatment included treatment with equal volume of 10 mM NaOH solution used for preparing the Aβ stock solutions, in respective cell culture medium. SH-SY5Y cells, after 16 h of transient expression of the reporter constructs, were treated with different Aβ variants, autophagy modulator substrates and respective controls in DMEM/F-12, FCS^− PS^− media for the mentioned time points. After treatment, cells were washed twice with PBS and with 0.025% trypsin-EDTA in PBS to get rid of cell bound Aβ, followed by subsequent washings with PBS again. Cells were either collected by scraping using a cell-scraper or fixed with 4% PFA-PBS for 15 min at RT, for further immunocytochemistry experiments. Collected treatment media was centrifuged at 1000 g for 5 min, pellet discarded and supernatant frozen at −20°C until further usage.
(§2) Cells were collected by scraping and mechanically homogenized in hypotonic D buffer (10 mM Tris-HCl, pH 7.4, 10 mM NaCl, 0.1 mM EGTA, 25 mM glycerol 2-phosphate, 1 mM DTT) containing protease and phosphatase inhibitors by repeated suspension through a 23 G × 1” needle. Post-nuclear supernatant (PNS) was collected by centrifugation of the mechanically homogenized cellular material at 2,000 g for 5 min. The pellet was the nuclear material. Nuclear pellet was then resuspended in Buffer C (5 mM HEPES, 1.5 mM MgCl2, 0.2 mM EDTA, 0.5 mM DTT, 0.05% NP40 [Sigma Aldrich, 18876], 30% glycerol, pH 7.9) containing protease and phosphatase inhibitors, ultrasonicated at minimum voltage, three currents in four cycles, followed by repetitive cooling of samples on ice. The nuclear fraction was the supernatant collected after centrifugation at 16,100 g for 15 min. The PNS collected from the first step was centrifuged at 16,100 g for 60 min, and supernatant was used as the crude cytosolic fraction. The pellet contained the membrane materials, which were re-homogenized in hypotonic D buffer and again centrifuged at 16,100 g for 60 min. The supernatant was discarded, pellet was resuspended in STEN-lysis buffer (20 mM Tris-HCl, pH 7.5, 150 mM NaCl, 1 mM EDTA, 1 mM EGTA, 1% Triton X-100, 2.5 mM sodium pyrophosphate [Sigma Aldrich, P1835], 1 mM β-glycerophosphate [Sigma Aldrich, G9422]) containing protease and phosphatase inhibitors, and the membrane fraction was the supernatant collected after centrifugation at 16,100 g for 15 min. The crude cytosolic fraction was then further fractionated at 100,000 g for 70 min at 4°C under vacuum. The resultant supernatant was the soluble cytosolic fraction. The pellet was resuspended in STEN lysis buffer and centrifuged at 16,100 g for 15 min. The resultant supernanant represented the insoluble cytosolic fraction.
(§3) For different cellular fractions prepared as described earlier, the protein content was estimated using the standard Pierce™ BCA protein assay kit (ThermoFisher Scientific, 23225). For direct comparison between the samples, equal amount of protein was loaded. Samples were dissolved in Laemmli buffer and were boiled at 95°C for 5 min. They were loaded on a precast 4–12% NuPage® Bis-Tris gels (Life technologies, NP033–5/6, WG140–2/3). Gels and prestained protein molecular weight markers were purchased from Life technologies. The separated proteins were electro-transferred onto a 0.2-μm nitrocellulose (NT) membrane (Amersham, 1060001) for 1 h 45 min. After blotting, the NT membranes were boiled in PBS for 10 min. Ponceau staining was done to monitor protein loading of samples. The blots were then incubated in 5% skim milk in TBS-T (TBS [50 mM Tris-HCl, pH 7.5, 150 mM NaCl] containing 0.1% Tween 20 [Sigma Aldrich, P1379]) for 1 h at RT. Blots were incubated overnight at 4°C in the primary antibody solution (respective dilutions in TBS-T, Table 1). Blots were washed and incubated with appropriate secondary antibodies conjugated either with HRP or fluorescent dyes for 1 h. […]

[3] = tested on: SH-SY5Y cells; experiment: Quantitative western immunoblotting of autophagy and endo-lysosomal proteins; format: cell-based, human; conditions: Aβ 1 µM, 24 h, n = 6, N = 3
Experimental: as §1, §2, §3

Substance	Decrease in the pH (LysoSensor response, ΔpH) [1]	CTSD mature* level [2] [fold change]	CTSD pro* level [2] [fold change]	EEA1* level [2] [fold change]	RAB5* level [2] [fold change]	RAB7* level [2] [fold change]	RAB11* level [2] [fold change]	SQSTM1/p62* level [2] [fold change]	UBQ* level [2] [fold change]	ATG3 level [2] [fold change]	ATG5 level [2] [fold change]	ATG12–ATG5 level [2] [fold change]	ATG14 level [2] [fold change]	LAMP2 level [2] [fold change]	LC3-I level [2] [fold change]	LC3-II level [2] [fold change]	ULK1/Atg1 level [2] [fold change]	ATG1-ULK1 kinase complex level ([3]; western immunoblot vs control)	EEA1 level ([3]; western immunoblot vs control)	RAB5 level ([3]; western immunoblot vs control)	also measured
amyloid-β phosphorylated at serine residue 8 [p-Ser8Aβ]	did not show any change	0.94 ± 0.09	0.99 ± 0.04	1.65 ± 0.21	1.26 ± 0.09	0.95 ± 0.17	1.75 ± 0.29	1.49 ± 0.06	1.62 ± 0.14	1.23 ± 0.38	1.18 ± 0.1	1.18 ± 0.2	1.17 ± 0.05	0.97 ± 0.06	1.43 ± 0.15	1.95 ± 0.14	0.88 ± 0.22	not	increased	increased	Levels of LC3-I and II ([3]; western immunoblot, compared to control cells): significantly increased levels
amyloid-β phosphorylated at serine residue 26 [p-Ser26Aβ]	0.17 ± 0.12 units	1.46 ± 0.11	1.19 ± 0.05	1.28 ± 0.12	1.47 ± 0.11	1.25 ± 0.12	1.89 ± 0.06	1.41 ± 0.08	2.11 ± 0.4	1.38 ± 0.32	1.31 ± 0.11	1.43 ± 0.23	1.58 ± 0.17	1.23 ± 0.07	1.45 ± 0.12	1.42 ± 0.2	1.74 ± 0.36	increased	no significant effect	increased	Intracellular levels of the ATP6V0A1 subunit of the V-ATPase ([3]; PNS fraction): significantly increased levels; Levels of nuclear transcription factor EB (TFEB) ([3]; nuclear material): significantly increased levels; CTSD level ([3]; western immunoblot vs control): selectively increased; LAMP2 level ([3]; western immunoblot vs control): selectively increased; RAB7 level ([3]; western immunoblot vs control): strongest effects; RAB11 level ([3]; western immunoblot vs control): strongest effects
non-phosphorylated amyloid-β [npAβ, reference compound]	0.13 ± 0.11 units	1.08 ± 0.07	0.99 ± 0.06	1.22 ± 0.15	1.08 ± 0.07	1.1 ± 0.08	1.47 ± 0.22	1.19 ± 0.02	1.36 ± 0.19	1.23 ± 0.21	1.08 ± 0.11	1.04 ± 0.09	1.27 ± 0.08	1.16 ± 0.08	1.37 ± 0.06	1.48 ± 0.06	1.37 ± 0.35	increased	no significant	no significant	ATG3 level ([3]; western immunoblot vs control): not; RAB7 level ([3]; western immunoblot vs control): no significant; RAB11 level ([3]; western immunoblot vs control): smallest effect

Reference: paper PMC10761119, “Phosphorylation-state dependent intraneuronal sorting of Aβ differentially impairs autophagy and the endo-lysosomal system” (Autophagy, 2023)
